For 16 compounds, Ki results are on record in patent US20250092022A1, “MUSCARINIC RECEPTOR 4 ANTAGONISTS AND METHODS OF USE” (Neurocrine Biosciences, Inc., priority 2021, published 2025).

The target of the experiment is human M4 receptor (Homo sapiens (Human), UniProt P08173). The experiment can be described thus: Binding assay: inhibition of radioligand (tritiated N-methylscopolamine) binding to membranes from CHO cells expressing human M4 receptor. To be noted: CHO cell membranes, 1.5 nM tritiated N-methylscopolamine. How it is done:
Binding affinity (Ki) for the compounds was measured by inhibition of radioligand binding to membranes from CHO cells expressing human M4 receptor. Membranes were prepared by nitrogen cavitation and differential centrifugation as previously described (Hoare et al., Mol. Pharmacol. 2003 March; 63(3): 751-65). The radioligand employed was tritiated N-methylscopolamine, used at a concentration of 1.5 nM. A dose-response of twelve concentrations of compound was used, ranging from […]. The assay buffer was 50 mM HEPES, 100 mM NaCl, 5 mM MgCl2, 1 mM ethylenediaminetetraacetic acid, pH-adjusted to pH 7.4. Membranes, radioligand and compound were incubated together for 90 minutes at 37° C., in a total volume of 150 μL in a 96-well plate. Receptor-bound radioligand was then collected by harvesting the assay over glass fiber filters pretreated with polyethylenimine to trap the cell membranes, using rapid vacuum filtration. Harvesting and radioactivity counting was conducted as previously described (see, e.g., Hoare et al., Mol. Pharmacol. 2003 63(3):751-65); Erratum at Mol. Pharmacol. 2005 July; 68(1): 260).

Each structure is given as a SMILES string.

Chain of human M4 receptor (P08173 whole entry): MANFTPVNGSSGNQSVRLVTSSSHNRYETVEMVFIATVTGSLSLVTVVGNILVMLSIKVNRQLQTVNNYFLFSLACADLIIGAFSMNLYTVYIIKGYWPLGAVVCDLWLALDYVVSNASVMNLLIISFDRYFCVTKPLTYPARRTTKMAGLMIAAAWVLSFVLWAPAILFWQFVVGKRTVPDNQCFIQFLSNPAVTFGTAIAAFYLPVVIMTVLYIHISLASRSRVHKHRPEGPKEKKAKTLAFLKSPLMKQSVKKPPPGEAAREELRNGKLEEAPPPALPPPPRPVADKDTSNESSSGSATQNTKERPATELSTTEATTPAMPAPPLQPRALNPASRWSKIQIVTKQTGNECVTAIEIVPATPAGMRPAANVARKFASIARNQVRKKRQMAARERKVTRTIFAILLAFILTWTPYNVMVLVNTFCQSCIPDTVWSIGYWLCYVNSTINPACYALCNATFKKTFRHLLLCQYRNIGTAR

The term Ki denotes a measure of affinity in units of concentration, obtained from inhibition or displacement. Low readings indicate higher affinity, high ones lower affinity. Compound `COc1ccc(CN2CC3(CC(OC(=O)N4[C@H](C)CN(c5ncc(S(C)(=O)=O)cn5)C[C@@H]4C)C3)C2)cc1` [Compound 60, 2-[(4-methoxyphenyl)methyl]-2-azaspiro[3.3] heptan-6-yl (2R,6S)-4-(5-methanesulfonylpyrimidin-2-yl)-2,6-dimethyl-piperazine-1-carboxylate] returned a Ki of under 100 nM. Turning to `CCS(=O)(=O)c1cnc(N2C[C@@H](C)N(C(=O)OC3CC4(C3)CN(Cc3ccccc3)C4)C[C@@H]2C)nc1` [Compound 11, 2-benzyl-2-azaspiro [3.3]heptan-6-yl (2R,5S)-4-[5-(ethane-sulfonyl)pyrimidin-2-yl]-2,5-dimethylpiperazine-1-carboxylate], the Ki was under 100 nM. For `CC(C)S(=O)(=O)c1cnc(N2C[C@@H](C)N(C(=O)OC3CC4(C3)CN(Cc3ccccc3)C4)C[C@@H]2C)nc1` [Compound 26, 2-benzyl-2-azaspiro [3.3]heptan-6-yl (2R,5S)-2,5-dimethyl-4-[5-(propane-2-sulfonyl)pyrimidin-2-yl]piperazine-1-carboxylate], the inhibitory constant (Ki) is under 100 nM. `CCS(=O)(=O)c1cnc(N2CCN(C(=O)OC3CC4(C3)CN(Cc3ccccc3)C4)[C@H](C)C2)nc1` [Compound 21, 2-benzyl-2-azaspiro [3.3]heptan-6-yl (2R)-4-[5-(ethanesulfonyl)-pyrimidin-2-yl]-2-methylpiperazine-1-carboxylate] yielded a Ki of under 100 nM. Then `C[C@@H]1CN(c2ncc(S(C)(=O)=O)cn2)[C@@H](C)CN1C(=O)OC1CC2(C1)CN(Cc1ccccc1)C2` [Compound 12, 2-benzyl-2-azaspiro [3.3]heptan-6-yl (2R,5S)-4-(5-methane-sulfonylpyrimidin-2-yl)-2,5-dimethylpiperazine-1-carboxylate], with under 100 nM.

As for `Cc1ccc(CN2CC3(CC(OC(=O)N4[C@H](C)CN(c5ncc(S(C)(=O)=O)cn5)C[C@@H]4C)C3)C2)cc1` [Compound 61, 2-[(4-methylphenyl)methyl]-2-azaspiro[3.3] heptan-6-yl (2R,6S)-4-(5-methanesulfonylpyrimidin-2-yl)-2,6-dimethyl-piperazine-1-carboxylate], the Ki is at least 500 nM. Consider `C[C@@H]1CN(c2ncc(OCC(C)(C)O)cn2)C[C@H](C)N1C(=O)OC1CC2(C1)CN(Cc1ccccc1)C2` [Compound 59, 2-benzyl-2-azaspiro [3.3]heptan-6-yl (2R,6S)-4-[5-(2-hydroxy-2-methylpropoxy)pyrimidin-2-yl]-2,6-dimethyl-piperazine-1-carboxylate], for which the inhibition constant (Ki) lay within 100 to 500 nM. On to `C[C@@H]1CN(c2ncc(OCC(O)C(F)F)cn2)C[C@H](C)N1C(=O)OC1CC2(C1)CN(Cc1ccccc1)C2` (stereo partly drawn) [Compound 54, 2-benzyl-2-azaspiro [3.3]heptan-6-yl (2R,6S)-4-[5-(3,3-difluoro-2-hydroxypropoxy)pyrimidin-2-yl]-2,6-dimethylpiperazine-1-carboxylate], for which the Ki is 100 to 500 nM. Then `C[C@@H]1CN(c2ncc(S(=O)(=O)C3CC3)cn2)[C@@H](C)CN1C(=O)NC1CC2(C1)CN(Cc1ccccc1)C2` [Compound 6, (2R,5S)-N-{2-benzyl-2-azaspiro[3.3]heptan-6-yl}-4-[5-(cyclopropane-sulfonyl)pyrimidin-2-yl]-2,5-dimethylpiperazine-1-carboxamide], with under 100 nM; and `C[C@@H]1CN(c2ncc(S(C)(=O)=O)cn2)[C@@H](C)CN1C(=O)NC1CC2(C1)CN(Cc1ccccc1)C2` [Compound 4, (2R,5S)-N-{2-benzyl-2-azaspiro[3.3]heptan-6-yl}-4-(5-methanesulfonyl-pyrimidin-2-yl)-2,5-dimethylpiperazine-1-carboxamide], with 100 to 500 nM; and `CCS(=O)(=O)c1cnc(N2C[C@@H](C)N(C(=O)NC3CC4(C3)CN(Cc3ccccc3)C4)C[C@@H]2C)nc1` [Compound 5, (2R,5S)-N-{2-benzyl-2-azaspiro[3.3]heptan-6-yl}-4-[5-(ethanesulfonyl)pyrimidin-2-yl]-2,5-dimethylpiperazine-1-carboxamide], with under 100 nM. Regarding `CCS(=O)(=O)c1cnc(N2C[C@@H](C)N(C(=O)NC3CC4(C3)CN(Cc3ccccc3)C4)[C@@H](C)C2)nc1` [Compound 2, (2R,6S)-N-{2-benzyl-2-azaspiro[3.3]heptan-6-yl}-4-[5-(ethanesulfonyl)pyrimidin-2-yl]-2,6-dimethylpiperazine-1-carboxamide], the Ki is under 100 nM. For `CC[C@@H](O)COc1cnc(N2C[C@@H](C)N(C(=O)OC3CC4(C3)CN(Cc3ccccc3)C4)[C@@H](C)C2)nc1` [Compound 58, 2-benzyl-2-azaspiro [3.3]heptan-6-yl (2R,6S)-4-{5-[(2R)-2-hydroxybutoxy]pyrimidin-2-yl}-2,6-dimethyl-piperazine-1-carboxylate] the value was 100 to 500 nM; for `C[C@H](O)COc1cnc(N2C[C@@H](C)N(C(=O)OC3CC4(C3)CN(Cc3ccccc3)C4)[C@@H](C)C2)nc1` [Compound 55, 2-benzyl-2-azaspiro [3.3]heptan-6-yl (2R,6S)-4-{5-[(2S)-2-hydroxypropoxy]pyrimidin-2-yl}-2,6-dimethylpiperazine-1-carboxylate], at least 500 nM. Then `C[C@@H]1CN(c2ncc(S(=O)(=O)C(F)F)cn2)[C@@H](C)CN1C(=O)OC1CC2(C1)CN(Cc1ccccc1)C2` [Compound 24, 2-benzyl-2-azaspiro [3.3]heptan-6-yl (2R,5S)-4-(5-difluoromethanesulfonyl-pyrimidin-2-yl)-2,5-dimethylpiperazine-1-carboxylate], with under 100 nM. Compound `C[C@@H]1CN(c2ccc(S(C)(=O)=O)cc2)C[C@H](C)N1C(=O)NC1CC2(C1)CN(Cc1ccccc1)C2` [Compound 9, (2R,6S)-N-{2-benzyl-2-azaspiro[3.3]heptan-6-yl}-4-(4-methanesulfonyl-phenyl)-2,6-dimethyl-piperazine-1-carboxamide] registered a Ki of at least 500 nM.
